Measurements reported in ChEMBL document CHEMBL1201862, “PubChem BioAssay data set” (2004).
Activity calls are given as the source filed them.

Columns and labels:
[1] = biological target: G-protein coupled receptor 55 (Homo sapiens, UniProt Q9Y2T6); experiment: inhibition of LPI-stimulated GPR55 beta-arrestin translocation – imaging, U2OS, beta-arrestin-GFP, LPI agonist, primary screen (AID 2013); assay type: functional;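 further: antagonist potency measured as reduced agonist-driven arrestin aggregation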
Chain of G-protein coupled receptor 55 (Q9Y2T6 whole entry): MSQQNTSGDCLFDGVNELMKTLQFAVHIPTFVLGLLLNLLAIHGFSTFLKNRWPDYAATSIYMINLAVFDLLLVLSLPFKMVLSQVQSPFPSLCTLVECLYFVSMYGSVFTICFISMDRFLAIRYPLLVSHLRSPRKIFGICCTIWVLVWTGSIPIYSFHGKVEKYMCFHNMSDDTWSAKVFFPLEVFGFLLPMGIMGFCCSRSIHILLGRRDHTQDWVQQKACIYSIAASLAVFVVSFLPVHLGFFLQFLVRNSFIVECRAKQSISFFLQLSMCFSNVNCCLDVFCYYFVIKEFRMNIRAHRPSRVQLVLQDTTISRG

[2] = biological target: Glyceraldehyde-3-phosphate dehydrogenase (Homo sapiens, UniProt P04406)
Chain of Glyceraldehyde-3-phosphate dehydrogenase (P04406 whole entry): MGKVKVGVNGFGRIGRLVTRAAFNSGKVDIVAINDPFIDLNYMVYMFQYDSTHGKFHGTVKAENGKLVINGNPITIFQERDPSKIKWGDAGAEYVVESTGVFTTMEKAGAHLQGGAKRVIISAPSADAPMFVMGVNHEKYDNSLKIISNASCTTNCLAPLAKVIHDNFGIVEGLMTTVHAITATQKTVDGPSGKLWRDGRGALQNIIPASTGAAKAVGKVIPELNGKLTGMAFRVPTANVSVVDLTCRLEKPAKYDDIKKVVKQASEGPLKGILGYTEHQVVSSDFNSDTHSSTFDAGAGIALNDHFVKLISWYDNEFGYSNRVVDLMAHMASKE

Genome polyprotein = Genome polyprotein (dengue virus type 2, UniProt P29990); experiment: flavivirus cap methylation enzyme inhibition – biochemical, confirmation dose response, primary screen (AID 588689); assay type: functional
Chain of Genome polyprotein (P29990 2492-3391 limits assumed): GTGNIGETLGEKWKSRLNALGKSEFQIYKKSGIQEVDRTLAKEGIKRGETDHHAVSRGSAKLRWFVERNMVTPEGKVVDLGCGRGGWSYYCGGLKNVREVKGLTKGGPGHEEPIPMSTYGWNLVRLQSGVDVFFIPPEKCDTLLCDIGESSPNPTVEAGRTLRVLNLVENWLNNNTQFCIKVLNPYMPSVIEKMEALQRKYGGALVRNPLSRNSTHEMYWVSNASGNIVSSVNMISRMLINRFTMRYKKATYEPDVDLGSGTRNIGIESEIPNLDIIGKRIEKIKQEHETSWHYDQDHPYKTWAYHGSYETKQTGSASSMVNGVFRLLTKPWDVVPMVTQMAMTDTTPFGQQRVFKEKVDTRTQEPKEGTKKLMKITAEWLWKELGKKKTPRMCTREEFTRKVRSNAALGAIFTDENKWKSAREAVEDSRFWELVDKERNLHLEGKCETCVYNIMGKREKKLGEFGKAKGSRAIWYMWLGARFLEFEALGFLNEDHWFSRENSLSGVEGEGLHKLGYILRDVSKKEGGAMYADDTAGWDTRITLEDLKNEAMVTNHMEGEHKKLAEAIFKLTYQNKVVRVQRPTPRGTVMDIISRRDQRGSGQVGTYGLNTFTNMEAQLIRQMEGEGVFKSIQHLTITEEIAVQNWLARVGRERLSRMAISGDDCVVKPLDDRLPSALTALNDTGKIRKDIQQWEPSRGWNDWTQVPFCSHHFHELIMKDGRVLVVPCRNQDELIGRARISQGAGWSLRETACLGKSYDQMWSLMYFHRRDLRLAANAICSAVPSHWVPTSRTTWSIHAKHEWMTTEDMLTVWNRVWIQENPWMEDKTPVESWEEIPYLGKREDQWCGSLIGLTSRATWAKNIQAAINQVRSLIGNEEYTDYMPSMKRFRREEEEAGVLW

[3] = THP-1 cell cytotoxicity, dose response, cytotoxicity control for non-replicating M. tuberculosis project (AID 489025); assay type: functional
cells = assay type: functional
[4] = Vero E6 cell cytotoxicity, dose response, cytotoxicity control for non-replicating M. tuberculosis project, secondary assay (AID 492998); assay type: functional, VeroE6; settings: Vero C1008
Protein RecA = biological target: T1, Protein RecA (Mycobacterium tuberculosis, UniProt P9WHJ3); experiment: Fluorescence Cell-Free Homogeneous Dose Retest to Identify Inhibitors of RecA-Intein Splicing Activity. [Related pubchem assays (depositor defined):AID2097, AID2223, AID489010, AID492950]; assay type: functional
T1 sequence (P9WHJ3 whole entry): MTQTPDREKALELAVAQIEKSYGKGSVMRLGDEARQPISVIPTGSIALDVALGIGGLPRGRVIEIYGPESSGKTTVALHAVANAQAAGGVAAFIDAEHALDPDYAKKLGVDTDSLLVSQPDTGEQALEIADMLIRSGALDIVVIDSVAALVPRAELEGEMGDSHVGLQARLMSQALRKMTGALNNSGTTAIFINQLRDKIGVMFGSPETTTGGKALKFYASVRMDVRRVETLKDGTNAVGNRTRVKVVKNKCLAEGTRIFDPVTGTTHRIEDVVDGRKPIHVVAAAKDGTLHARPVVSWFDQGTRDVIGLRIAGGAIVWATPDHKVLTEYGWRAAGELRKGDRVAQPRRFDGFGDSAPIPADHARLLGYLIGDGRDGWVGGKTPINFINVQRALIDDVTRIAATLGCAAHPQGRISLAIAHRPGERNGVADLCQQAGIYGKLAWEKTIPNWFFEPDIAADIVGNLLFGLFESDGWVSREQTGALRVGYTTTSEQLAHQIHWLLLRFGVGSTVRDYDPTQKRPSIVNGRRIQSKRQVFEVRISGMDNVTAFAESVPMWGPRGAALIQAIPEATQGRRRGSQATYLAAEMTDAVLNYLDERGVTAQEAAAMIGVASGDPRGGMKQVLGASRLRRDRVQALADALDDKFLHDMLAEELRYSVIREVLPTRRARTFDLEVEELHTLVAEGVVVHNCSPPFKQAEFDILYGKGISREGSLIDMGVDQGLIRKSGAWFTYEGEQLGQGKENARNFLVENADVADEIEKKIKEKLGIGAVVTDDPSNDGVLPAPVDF

[5] = biological target: T2, Replicative DNA helicase DnaB (Mycobacterium tuberculosis, UniProt P9WMR3); experiment: DnaB intein splicing inhibitors, dose response, biochemical, cell-free fluorescence (AID 449749); assay type: functional
T2 sequence (P9WMR3 whole entry): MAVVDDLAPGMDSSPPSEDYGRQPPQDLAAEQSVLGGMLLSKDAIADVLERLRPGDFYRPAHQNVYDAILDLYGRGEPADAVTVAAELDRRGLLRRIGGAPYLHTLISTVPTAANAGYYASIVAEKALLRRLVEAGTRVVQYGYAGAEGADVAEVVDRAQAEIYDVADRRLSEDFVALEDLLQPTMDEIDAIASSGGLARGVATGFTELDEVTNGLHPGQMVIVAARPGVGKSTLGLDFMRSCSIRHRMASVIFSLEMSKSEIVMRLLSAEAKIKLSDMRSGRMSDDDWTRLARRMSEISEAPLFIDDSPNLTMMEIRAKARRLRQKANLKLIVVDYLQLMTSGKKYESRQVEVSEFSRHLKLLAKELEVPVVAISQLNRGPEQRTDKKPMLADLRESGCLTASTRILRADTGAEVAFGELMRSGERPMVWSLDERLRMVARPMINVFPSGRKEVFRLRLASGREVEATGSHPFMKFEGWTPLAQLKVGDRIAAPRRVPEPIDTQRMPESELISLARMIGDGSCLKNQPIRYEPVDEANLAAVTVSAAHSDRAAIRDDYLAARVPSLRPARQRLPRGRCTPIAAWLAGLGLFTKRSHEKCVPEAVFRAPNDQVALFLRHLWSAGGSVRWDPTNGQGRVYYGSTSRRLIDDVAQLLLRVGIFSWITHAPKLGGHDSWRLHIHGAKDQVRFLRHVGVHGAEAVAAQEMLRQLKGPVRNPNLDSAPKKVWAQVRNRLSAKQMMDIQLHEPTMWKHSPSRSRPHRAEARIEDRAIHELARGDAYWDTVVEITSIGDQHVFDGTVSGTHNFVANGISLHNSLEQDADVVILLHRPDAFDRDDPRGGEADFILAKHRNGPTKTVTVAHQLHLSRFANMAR

[6] = microbe, parasite or virus in culture; assay type: functional; settings: Mycobacterium tuberculosis
Leucine aminopeptidase = biological target: T3, Leucine aminopeptidase (Plasmodium falciparum 3D7, UniProt Q8IL11); experiment: P. falciparum M17LAP inhibitors, primary screen, biochemical, fluorogenic H-Leu-NHMec substrate, 1536-well (AID 1619); assay type: functional
T3 sequence (Q8IL11 whole entry): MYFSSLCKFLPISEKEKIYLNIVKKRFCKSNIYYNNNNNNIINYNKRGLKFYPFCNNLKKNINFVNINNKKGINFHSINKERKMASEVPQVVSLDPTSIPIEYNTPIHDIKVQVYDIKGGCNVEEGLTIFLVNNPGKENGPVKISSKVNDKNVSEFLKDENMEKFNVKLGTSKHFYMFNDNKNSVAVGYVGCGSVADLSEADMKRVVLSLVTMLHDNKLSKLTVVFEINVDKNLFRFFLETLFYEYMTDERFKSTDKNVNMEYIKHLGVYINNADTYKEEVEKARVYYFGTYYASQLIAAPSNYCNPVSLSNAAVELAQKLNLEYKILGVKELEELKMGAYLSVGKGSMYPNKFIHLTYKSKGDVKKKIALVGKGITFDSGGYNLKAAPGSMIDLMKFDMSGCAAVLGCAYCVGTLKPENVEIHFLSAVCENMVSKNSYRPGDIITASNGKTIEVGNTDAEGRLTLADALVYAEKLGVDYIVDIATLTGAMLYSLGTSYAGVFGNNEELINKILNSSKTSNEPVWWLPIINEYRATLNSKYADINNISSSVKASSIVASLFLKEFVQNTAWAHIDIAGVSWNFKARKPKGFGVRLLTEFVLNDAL

[7] = HEK-293T viability loss after treatment – luminescence, T-cell screen hits, cytotoxicity control for TCR NF-kB inhibitor project, dose response (AID 489026); assay type: functional, cell-based;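 further: cells exposed to compound about 14 hours before the viability readout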
[8] = viability of uninfected HEp-2 cells – cell-based, HTS, cytotoxicity control for RSV inhibitor project, dose response (AID 2410); assay type: functional; settings: human respiratory syncytial virus
BJ [9] = experiment: BJ-TERT-LT-ST fibroblast viability loss – cell-based, RAS-independent, luminescence, dose response (AID 1935); assay type: functional; settings: Homo sapiens;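 further: BJ fibroblasts immortalized with TERT plus LT and ST oncogenes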
BJ [10] = experiment: BJ-TERT fibroblast viability loss – cell-based, RAS-independent, luminescence, dose response (AID 1933); assay type: functional; settings: Homo sapiens
BJ [11] = experiment: cells; assay type: functional, cell-based; settings: Homo sapiens
[12] = DRD fibroblast viability loss – cell-based, non-viral oncogenic, luminescence, dose response (AID 1934); assay type: functional; settings: Homo sapiens
[13] = biological target: T4, Carboxy-terminal domain RNA polymerase II polypeptide A small phosphatase 1 (Homo sapiens, UniProt Q9GZU7); experiment: CTDSP1 inhibitors, concentration-response, biochemical, absorbance readout, ultra-high-throughput screen actives (AID 540297); assay type: functional
T4 sequence (Q9GZU7 whole entry): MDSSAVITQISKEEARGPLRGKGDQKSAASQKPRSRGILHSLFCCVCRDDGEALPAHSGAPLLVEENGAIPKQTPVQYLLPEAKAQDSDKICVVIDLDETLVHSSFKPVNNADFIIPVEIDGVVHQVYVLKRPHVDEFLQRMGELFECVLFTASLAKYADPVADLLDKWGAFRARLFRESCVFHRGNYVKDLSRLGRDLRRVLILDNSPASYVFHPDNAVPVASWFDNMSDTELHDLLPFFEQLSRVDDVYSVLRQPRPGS

Fatty acid synthase [14] = biological target: T5, Fatty acid synthase (Homo sapiens, UniProt P49327); experiment: inhibition of human FAS-TE enzyme activity – biochemical, endpoint fluorescence intensity, uHTS hits, dose response (AID 624327); assay type: functional;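 further: fluorescence from hydrolysis of an O-methyl fluorescein acyl ester substrate by the enzyme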
T5 sequence (P49327 whole entry): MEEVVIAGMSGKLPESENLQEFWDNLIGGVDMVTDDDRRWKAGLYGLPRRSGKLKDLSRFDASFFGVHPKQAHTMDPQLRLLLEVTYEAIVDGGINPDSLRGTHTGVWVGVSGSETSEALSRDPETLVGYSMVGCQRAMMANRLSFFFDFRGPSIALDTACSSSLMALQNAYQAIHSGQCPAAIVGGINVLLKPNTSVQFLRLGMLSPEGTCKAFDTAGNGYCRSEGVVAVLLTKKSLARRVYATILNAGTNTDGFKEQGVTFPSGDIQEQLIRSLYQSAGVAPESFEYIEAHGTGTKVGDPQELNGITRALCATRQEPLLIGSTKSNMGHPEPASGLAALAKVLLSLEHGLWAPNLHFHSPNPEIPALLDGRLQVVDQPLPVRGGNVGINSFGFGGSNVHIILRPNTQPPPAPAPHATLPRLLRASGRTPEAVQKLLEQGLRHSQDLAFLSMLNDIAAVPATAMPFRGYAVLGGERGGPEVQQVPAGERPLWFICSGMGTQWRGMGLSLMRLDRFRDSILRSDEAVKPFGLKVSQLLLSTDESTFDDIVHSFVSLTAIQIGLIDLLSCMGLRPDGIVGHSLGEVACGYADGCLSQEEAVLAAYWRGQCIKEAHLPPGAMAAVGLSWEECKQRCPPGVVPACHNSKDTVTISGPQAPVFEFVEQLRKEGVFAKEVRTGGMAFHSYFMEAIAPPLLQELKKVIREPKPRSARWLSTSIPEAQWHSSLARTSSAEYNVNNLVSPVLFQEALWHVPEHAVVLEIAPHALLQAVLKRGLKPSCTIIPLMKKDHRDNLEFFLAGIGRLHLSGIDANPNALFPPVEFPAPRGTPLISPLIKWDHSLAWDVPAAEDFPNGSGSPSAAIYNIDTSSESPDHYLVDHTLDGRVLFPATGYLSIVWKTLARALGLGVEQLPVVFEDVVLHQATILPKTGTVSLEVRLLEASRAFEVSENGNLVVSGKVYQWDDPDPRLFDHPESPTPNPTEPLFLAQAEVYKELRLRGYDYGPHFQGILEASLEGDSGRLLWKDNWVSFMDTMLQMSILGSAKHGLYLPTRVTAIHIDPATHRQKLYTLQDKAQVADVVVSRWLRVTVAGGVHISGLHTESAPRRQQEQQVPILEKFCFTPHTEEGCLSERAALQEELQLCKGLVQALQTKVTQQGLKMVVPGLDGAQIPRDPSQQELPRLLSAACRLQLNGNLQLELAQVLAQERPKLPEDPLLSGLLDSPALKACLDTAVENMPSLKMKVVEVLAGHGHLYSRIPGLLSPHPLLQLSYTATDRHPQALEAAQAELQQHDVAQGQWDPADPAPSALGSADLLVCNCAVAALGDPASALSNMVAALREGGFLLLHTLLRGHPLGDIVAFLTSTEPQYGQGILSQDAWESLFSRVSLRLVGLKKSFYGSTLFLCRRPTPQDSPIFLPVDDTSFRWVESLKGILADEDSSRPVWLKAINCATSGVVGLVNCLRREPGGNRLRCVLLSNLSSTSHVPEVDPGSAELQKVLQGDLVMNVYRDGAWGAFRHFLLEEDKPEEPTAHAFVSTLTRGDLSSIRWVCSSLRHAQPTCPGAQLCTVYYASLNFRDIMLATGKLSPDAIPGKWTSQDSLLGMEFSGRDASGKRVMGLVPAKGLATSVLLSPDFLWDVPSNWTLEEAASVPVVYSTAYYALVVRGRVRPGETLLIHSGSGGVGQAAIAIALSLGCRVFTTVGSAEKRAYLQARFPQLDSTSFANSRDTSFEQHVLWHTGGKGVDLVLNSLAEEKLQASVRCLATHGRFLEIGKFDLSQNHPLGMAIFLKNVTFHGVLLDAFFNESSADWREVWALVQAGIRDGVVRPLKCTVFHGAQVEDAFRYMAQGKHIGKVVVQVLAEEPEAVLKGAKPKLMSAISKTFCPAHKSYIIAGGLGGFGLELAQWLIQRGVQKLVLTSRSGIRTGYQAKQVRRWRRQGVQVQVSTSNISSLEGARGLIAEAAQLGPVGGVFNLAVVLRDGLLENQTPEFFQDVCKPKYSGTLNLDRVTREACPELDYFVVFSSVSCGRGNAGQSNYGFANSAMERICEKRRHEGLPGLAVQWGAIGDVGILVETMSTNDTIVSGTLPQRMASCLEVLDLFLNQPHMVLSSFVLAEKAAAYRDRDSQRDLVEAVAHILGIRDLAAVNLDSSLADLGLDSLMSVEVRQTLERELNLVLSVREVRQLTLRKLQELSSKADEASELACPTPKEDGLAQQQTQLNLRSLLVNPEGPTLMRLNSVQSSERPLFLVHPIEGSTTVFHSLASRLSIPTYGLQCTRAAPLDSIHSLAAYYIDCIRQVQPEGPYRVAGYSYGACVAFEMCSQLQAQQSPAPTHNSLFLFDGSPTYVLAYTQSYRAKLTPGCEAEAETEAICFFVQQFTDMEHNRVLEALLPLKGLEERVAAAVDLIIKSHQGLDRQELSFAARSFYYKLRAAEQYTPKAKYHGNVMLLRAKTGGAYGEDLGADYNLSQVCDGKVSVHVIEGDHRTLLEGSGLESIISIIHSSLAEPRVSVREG

Fatty acid synthase [15] = biological target: T5, Fatty acid synthase; experiment: inhibition of human FAS-TE enzyme activity – biochemical, kinetic fluorescence intensity, dose response (AID 624326); assay type: functional;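 further: rate of fluorescence rise from hydrolysis of a fluorogenic O-methyl fluorescein ester substrate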
Paired box protein Pax-8 = Paired box protein Pax-8 (Homo sapiens, UniProt Q06710); experiment: PAX8 transcriptional activity inhibition in RMG-I – RMG-I cells, luciferase, cherry-pick, dose response (AID 687027); assay type: functional, cell-based;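 further: luciferase reporter driven by Pax8 target thyroperoxidase promoter measured by SteadyGlo luminescence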
Chain of Paired box protein Pax-8 (Q06710 whole entry): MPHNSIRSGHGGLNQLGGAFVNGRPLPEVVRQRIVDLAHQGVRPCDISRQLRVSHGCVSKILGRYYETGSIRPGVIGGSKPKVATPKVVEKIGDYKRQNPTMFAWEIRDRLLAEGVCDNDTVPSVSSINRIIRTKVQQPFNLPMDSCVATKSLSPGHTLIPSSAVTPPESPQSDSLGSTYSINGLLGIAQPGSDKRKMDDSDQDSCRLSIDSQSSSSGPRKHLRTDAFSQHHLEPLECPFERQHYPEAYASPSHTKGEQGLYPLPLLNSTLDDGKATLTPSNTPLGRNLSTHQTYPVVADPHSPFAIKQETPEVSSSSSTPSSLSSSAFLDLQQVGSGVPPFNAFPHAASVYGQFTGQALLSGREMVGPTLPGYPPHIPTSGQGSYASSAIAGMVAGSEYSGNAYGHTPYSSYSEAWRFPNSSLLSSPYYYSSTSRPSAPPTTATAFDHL

Q: Which IC50 [1] does the source give for `CC(C)c1ccc(NC(=S)NN(c2ccccc2)c2ccccc2)cc1` here?
A: Its IC50 is 0.793 µM (active).

Q: For `Cc1ccccc1-n1cnnc1SCC(=O)N1CCN(c2ccccc2)CC1`, which IC50 [2] is on record?
A: Its IC50 is 36.3 µM (active).

Q: With `Cc1ccc(S(=O)(=O)NN2C(=O)/C(=C/c3cccc(F)c3)SC2=S)cc1` as the molecule, how does the IC50 (Genome polyprotein) read?
A: Its IC50 is 27.2 µM (active).

Q: For `S=C1SCN(Cc2cccnc2)CN1Cc1ccccc1`, which CC50 [3] is on record?
A: The CC50 was 15.2 µM (active).

Q: And the IC50 (cells)?
A: Its IC50 is 18.2 µM (active).

Q: What about the CC50 [4] of the same molecule?
A: Its CC50 is 11 µM (active).

Q: With `Cc1ccc(N2C(=O)C(Cl)=C(N3CCN(C)CC3)C2=O)c(C)c1` as the molecule, how does the EC50 (Protein RecA) read?
A: Its EC50 is 2.35 µM (active).

Q: What about the AC50 [5] of the same molecule?
A: The AC50 was 8.01 µM (active).

Q: What about the IC50 (Genome polyprotein) of the same molecule?
A: The IC50 was 40.5 µM (active).

Q: With `COc1ccc(SC[C@H](Cc2ccccc2)N2CCN(CCc3ccccc3)CCC2=O)cc1` as the molecule, how does the CC50 [6] read?
A: Its CC50 is > 40 µM (active).

Q: Which IC50 [2] does the source give for `CCN1CCN(C2=C(Cl)C(=O)N(c3ccnc(Cl)c3)C2=O)CC1` here?
A: Its IC50 is > 50 µM (inconclusive).

Q: Which IC50 (Leucine aminopeptidase) does the source give for `Cc1noc(NS(=O)(=O)c2ccc(NC(=O)CSc3nc4ccccc4s3)cc2)c1C` here?
A: The IC50 was 15.3 µM (active).

Q: For `CCOc1ccccc1C(=O)Nc1ccc2nc(N3CCN(c4ncccn4)CC3)cc(C)c2c1`, which IC50 [7] is on record?
A: Its IC50 is > 80 µM (inactive).

Q: With `CC(=O)NC1C(c2nc3ccccc3s2)=C(c2ccccc2)C(=O)N1c1ccc(C)cc1` (stereo not drawn) as the molecule, how does the CC50 [6] read?
A: Its CC50 is > 40 µM (active).

Q: For `N#CC1=C(N)Oc2[nH]nc(-c3ccccc3)c2C1c1cccnc1` (stereo not drawn), which EC50 (Protein RecA) is on record?
A: Its EC50 is 1.79 µM (active).

Q: What about the IC50 (Leucine aminopeptidase) of the same molecule?
A: The IC50 was 60.4 µM (active).

Q: What about the AC50 [5] of the same molecule?
A: The AC50 was 6.14 µM (active).

Q: Which results are given for `COc1ccc(CN2C(=O)/C(=C/c3ccncc3)SC2=S)cc1`?
A: CC50 [8]: 10.3 µM (active); CC50 [3]: 18 µM (active); EC50 (BJ [9]): > 75 µM (inconclusive); EC50 (BJ [10]): 13.8 µM (active); EC50 (BJ [11]): > 150 µM (inconclusive); IC50 (cells): 21.2 µM (active); EC50 [12]: 16.9 µM (active); CC50 [4]: 7.52 µM (active)

Q: Which IC50 (Leucine aminopeptidase) does the source give for `Cc1ccc(OCC(=O)Nc2ccc(O)c(C(=O)O)c2)cc1C` here?
A: Its IC50 is 19.5 µM (active).

Q: For `CSc1cccc(CNC(=O)C2CCC(=O)N(Cc3cccc(C(F)(F)F)c3)C2)c1` (stereo not drawn), which CC50 [6] is on record?
A: The CC50 was > 40 µM (active).

Q: Which IC50 [13] does the source give for `Cc1oc2c(C)c3oc(=O)c(CC(=O)N[C@@H](CC(C)C)C(=O)N[C@@H](Cc4ccccc4)C(=O)O)c(C)c3cc2c1C` here?
A: The IC50 was 4.59 µM (active).

Q: What about the IC50 (Genome polyprotein) of the same molecule?
A: Its IC50 is 72.6 µM (active).

Q: For `CSc1ccc(COC(=O)c2cc([N+](=O)[O-])ccc2N2CCOCC2)cc1`, which IC50 (Fatty acid synthase [14]) is on record?
A: The IC50 was 4.08 µM (active).

Q: What about the EC50 (BJ [9]) of the same molecule?
A: The EC50 was 0.385 µM (active).

Q: And the IC50 (Fatty acid synthase [15])?
A: Its IC50 is 3.26 µM (active).

Q: What about the EC50 (BJ [10]) of the same molecule?
A: The EC50 was 0.652 µM (inconclusive).

Q: And the AC50 (Paired box protein Pax-8)?
A: The AC50 was 0.619 µM (active).

Q: And the EC50 (BJ [11])?
A: Its EC50 is 1.09 µM (active).

Q: And the EC50 [12]?
A: The EC50 was 0.653 µM (active).

Q: What about the IC50 [7] of the same molecule?
A: The IC50 was > 80 µM (inactive).

Q: For `O=C1C2CC=CCC2C(=O)N1c1nc(-c2cccnc2)n[nH]1` (stereo not drawn), which IC50 [2] is on record?
A: Its IC50 is > 100 µM (not active).

Q: Which IC50 (Leucine aminopeptidase) does the source give for `CC1(C)[N+]([O-])=CC(c2cccs2)=[N+]1[O-]` here?
A: The IC50 was 22.7 µM (active).

Q: What does the source list for `CCn1c(NC(=O)C2CCCCC2)nc2ccccc21`?
A: CC50 [3]: 31.7 µM (active); IC50 (cells): 1.33 µM (active); CC50 [4]: > 20 µM (active)

Q: Which CC50 [6] does the source give for `COc1ccc(/N=C(/C2=C(O)CCC2)C2CCCCC2)cc1` here?
A: The CC50 was > 40 µM (active).
